Reference: US20230126447A1, “OCULAR DRUG DEPOT FOR COMPLEMENT-MEDIATED DISORDERS” (priority 2020, published 2023)

What was measured:
CFD = CFD (Homo sapiens, UniProt P00746); assay: Inhibitory effect on CFD; format: biochemical
[1] = QWBA tissue distribution of [14C] Compound 2, Long-Evans rats (PO, IV); format: in vivo
Description: (§1) The study was conducted to determine the tissue distribution of [^14C] Compound 2-derived radioactivity following a single oral gavage (PO) administration of 20 mg/kg (100 μCi/kg) of [^14C] […] Compound 2 to a male Long-Evans rat using quantitative whole body autoradiography (QWBA).
(§2) A total of ten male Long-Evans and three male Wistar Hannover rats were administered a single PO dose of [^14C] […] One male Long-Evans rat was administered a single IV dose of [^14C] […] (See Table 3). One animal per group per strain was anesthetized by inhalation of isoflurane gas at designated time points post-dose, followed by blood collection via cardiac puncture and euthanasia by isoflurane overdose. Each carcass was then frozen in a dry ice/hexane bath. Blood and plasma samples were assayed for total radioactivity (TRA) concentrations by liquid scintillation counting (LSC). The tissue concentrations of TRA were determined using validated QWBA techniques. Pharmacokinetic parameters of derived radioactivity in blood, plasma, and tissues were calculated, to the extent possible, using Phoenix© WinNonlin® (Version 6.3, Pharsight Corporation; Mountain View, Calif.).

[2] = QWBA tissue distribution of [14C] Compound 2, Wistar Hannover rats (PO); format: in vivo; details: 20 mg/kg PO
Description: as §1, §2

[3] = Stability under melanin binding assay conditions; details: PBS, 37° C., 1 hour vs time zero
Description: (§3) […] The melanin solution was stored in the dark at 37° C. until use.
(§4) The assay plates containing samples with and without melanin were incubated in the dark with shaking at 37° C. for 1 hour. Following incubation, the samples were centrifuged for 15 minutes at approximately 4000 rpm at 37° C. to sediment the melanin. Sample supernatant (3 μL) was added to 100 μL of acetonitrile containing the internal standard and then diluted with water (197 μL).
% Stability=Mean Total Conc. (μM) after 1 Hour/Mean Total Conc. (μM) at Time Zero×100%

[4] = In vitro binding to synthetic melanin; details: synthetic melanin 50 μg/mL, PBS, 37° C., 1 hour
Description: as §3
(§5) Immediately after the assay, samples were added to an equal volume of warm PBS, aliquots (3 μL each) were removed, added to 100 μL of acetonitrile containing carbutamide as internal standard, and then diluted with water (197 μL). These time-zero samples, prepared in PBS only, were also used as calibration standards.
as §4
(§6) The column was set to a temperature of 55° C. […]
(§7) Analytes and internal standards were detected using an Applied Biosystems Sciex API-5500 triple quadrupole mass spectrometer with Agilent 1260 Infinity Binary Pump and Apricot Designs ADDA High-Speed Dual Arm Autosampling System. The instrument was equipped with an electrospray ionization source (600° C.) operated in the positive ion mode. Analytes and internal standards for all samples were monitored in the multiple-reaction-monitoring scan mode.

[5] = In vitro binding to melanin from Sepia officinalis; details: S. officinalis melanin 50 μg/mL, PBS, 37° C., 1 hour
Description: as §3, §5, §4, §6, §7

[6] = male Long-Evans rats, 20 mg/kg PO
[7] = male Wistar Hannover rats, 1 h post-dose
[8] = male Wistar Hannover rats, 24 h post-dose

Sequence of CFD (P00746 26-253): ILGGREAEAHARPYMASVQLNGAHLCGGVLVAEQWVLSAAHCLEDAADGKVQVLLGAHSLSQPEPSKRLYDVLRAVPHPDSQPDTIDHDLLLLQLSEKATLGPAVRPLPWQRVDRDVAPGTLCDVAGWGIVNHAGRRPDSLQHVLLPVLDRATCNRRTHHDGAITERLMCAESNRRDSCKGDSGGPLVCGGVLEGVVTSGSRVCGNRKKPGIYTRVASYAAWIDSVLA

CC(=O)c1cn(CC(=O)N2[C@H](C(=O)Nc3nc(Br)ccc3C)C[C@@]3(C)C[C@@H]23)c2c(C)cc(-c3cnc(C)nc3)cc12 [Compound 3, (1R,3S,5R)-2-(2-(3-acetyl-7-methyl-5-(2-methylpyrimidin-5-yl)-1H-indol-1-yl)acetyl)-N-(6-bromo-3-methylpyridin-2-yl)-5-methyl-2-azabicyclo[3.1.0]hexane-3-carboxamide]
IC50 (CFD): 32.1 nM

CC(=O)c1nn(CC(=O)N2[C@H](C(=O)Nc3nc(Br)ccc3C)C[C@@]3(C)C[C@@H]23)c2ccc(-c3cnc(C)nc3)cc12 [Compound 2, (1R,3S,5R)-2-(2-(3-acetyl-5-(2-methylpyrimidin-5-yl)-1H-indazol-1-yl)acetyl)-N-(6-bromo-3-methylpyridin-2-yl)-5-methyl-2-azabicyclo[3.1.0]hexane-3-carboxamide]
Radioactivity in the central nervous system ([1]; male Long-Evans rat, 5 mg/kg IV, […] post-dose): 0.201 μg equiv/g tissue
Tissue:plasma AUC0-t ratio, majority of tissues [1, 6]: greater than 1.00
Tmax, majority of tissues [1, 6]: 1 h
Total plasma radioactivity ([1]; male Long-Evans rats, 20 mg/kg PO, 48 h post-dose): BLQ
Blood concentration of radioactivity ([1]; male Long-Evans rats, 20 mg/kg PO, 72 h post-dose): BLQ
Concentration of radioactivity, eye and uveal tract ([1]; male Long-Evans rats, 20 mg/kg PO, 840 h post-dose): 0.212 μg equiv/g tissue
Radioactivity in the central nervous system ([2]; Wistar Hannover rat, 1 h post-dose): 0.179 μg equiv/g tissue
Tmax, all tissues ([2]; male Wistar Hannover rats): 1 h
Tissue to plasma concentration ratio, brain [2, 7]: 0.04
Tissue to plasma concentration ratio, cecum mucosa [2, 7]: 0.96
Tissue to plasma concentration ratio, kidney medulla [2, 7]: 12.6
Tissue to plasma concentration ratio, stomach wall non-glandular [2, 7]: 1.00
Tissue to plasma ratio, bone marrow [2, 8]: 2.90
Tissue to plasma ratio, stomach wall non-glandular [2, 8]: 100
Total plasma radioactivity ([2]; male Wistar Hannover rats, 168 h post-dose): BLQ

CCN(CC)CCCC(C)Nc1ccnc2cc(Cl)ccc12 (stereo not shown) [Chloroquine, chloroquine, reference compound]
Mean Stability [3]: 87.3%
Bmax (binding capacity) [4]: 308 nmol/mg melanin
Bmax (binding capacity) [5]: 280 nmol/mg melanin
